Consider twelve compounds from US20260183275A1, “SUBSTITUTED QUINOLONE COMPOUNDS USEFUL AS INHIBITORS OF TLR9” (Bristol-Myers Squibb Company, priority 2022, published 2026).

Common to all, as to format: cell-based
The target of experiment [1] is T1, human TLR9 (Homo sapiens, UniProt Q9NR96).
T1 construct: host or cells: HEK-Blue cells
T1 sequence (Q9NR96 26-1032): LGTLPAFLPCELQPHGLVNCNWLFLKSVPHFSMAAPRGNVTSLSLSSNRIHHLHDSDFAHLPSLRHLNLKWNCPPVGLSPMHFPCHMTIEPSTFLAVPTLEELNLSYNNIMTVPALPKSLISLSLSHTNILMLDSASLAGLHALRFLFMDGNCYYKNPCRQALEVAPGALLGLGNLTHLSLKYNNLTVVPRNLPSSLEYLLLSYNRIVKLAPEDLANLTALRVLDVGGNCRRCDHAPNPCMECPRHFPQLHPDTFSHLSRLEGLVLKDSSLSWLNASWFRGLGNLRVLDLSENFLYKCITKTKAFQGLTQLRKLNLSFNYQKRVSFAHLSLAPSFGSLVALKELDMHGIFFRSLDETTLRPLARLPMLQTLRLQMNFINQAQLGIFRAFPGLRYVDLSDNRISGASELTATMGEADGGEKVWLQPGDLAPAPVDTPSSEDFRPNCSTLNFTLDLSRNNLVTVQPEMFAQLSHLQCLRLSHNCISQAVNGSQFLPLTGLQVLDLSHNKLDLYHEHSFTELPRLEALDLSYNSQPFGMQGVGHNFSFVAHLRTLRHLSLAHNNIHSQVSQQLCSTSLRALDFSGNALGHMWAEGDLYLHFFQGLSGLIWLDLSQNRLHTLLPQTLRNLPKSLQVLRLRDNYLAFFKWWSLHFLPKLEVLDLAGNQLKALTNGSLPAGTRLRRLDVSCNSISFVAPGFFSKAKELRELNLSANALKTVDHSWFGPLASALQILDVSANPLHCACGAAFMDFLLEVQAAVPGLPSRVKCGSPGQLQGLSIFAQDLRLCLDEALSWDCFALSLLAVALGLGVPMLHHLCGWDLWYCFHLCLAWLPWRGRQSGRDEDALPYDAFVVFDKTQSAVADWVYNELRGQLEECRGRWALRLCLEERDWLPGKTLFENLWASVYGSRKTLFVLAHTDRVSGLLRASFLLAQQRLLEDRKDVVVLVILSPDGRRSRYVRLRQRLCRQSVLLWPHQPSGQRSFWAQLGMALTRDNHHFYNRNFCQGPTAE
Description: TLR9 inhibition reporter assay (HEK-Blue cells, SEAP reporter). Particulars: HEK-Blue cells overexpressing human TLR9; stimulated with ODN2006 5 nM; SEAP read after 22 hour; dose range 0.05 nM-50 μM. The gist of the method: (§1)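 HEK-Blue cells with NF-κB/AP-1-driven SEAP pre-treated 30 min with compounds (0.05 nM-50 μM), then stimulated with gardiquimod 7.5 μM (TLR7), R848 15.9 μM (TLR8) or ODN2006 5 nM (TLR9). SEAP read after 22 h at 37° C; % inhibition relative to agonist+DMSO and reference-inhibitor wells.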
For orientation: Reporter assays use an easily measured gene product as a stand-in for the process of interest.

In experiment [2] the target is T2, human TLR7 (Homo sapiens, UniProt Q9NYK1).
T2 construct: host or cells: HEK-Blue cells
T2 sequence (Q9NYK1 27-1049): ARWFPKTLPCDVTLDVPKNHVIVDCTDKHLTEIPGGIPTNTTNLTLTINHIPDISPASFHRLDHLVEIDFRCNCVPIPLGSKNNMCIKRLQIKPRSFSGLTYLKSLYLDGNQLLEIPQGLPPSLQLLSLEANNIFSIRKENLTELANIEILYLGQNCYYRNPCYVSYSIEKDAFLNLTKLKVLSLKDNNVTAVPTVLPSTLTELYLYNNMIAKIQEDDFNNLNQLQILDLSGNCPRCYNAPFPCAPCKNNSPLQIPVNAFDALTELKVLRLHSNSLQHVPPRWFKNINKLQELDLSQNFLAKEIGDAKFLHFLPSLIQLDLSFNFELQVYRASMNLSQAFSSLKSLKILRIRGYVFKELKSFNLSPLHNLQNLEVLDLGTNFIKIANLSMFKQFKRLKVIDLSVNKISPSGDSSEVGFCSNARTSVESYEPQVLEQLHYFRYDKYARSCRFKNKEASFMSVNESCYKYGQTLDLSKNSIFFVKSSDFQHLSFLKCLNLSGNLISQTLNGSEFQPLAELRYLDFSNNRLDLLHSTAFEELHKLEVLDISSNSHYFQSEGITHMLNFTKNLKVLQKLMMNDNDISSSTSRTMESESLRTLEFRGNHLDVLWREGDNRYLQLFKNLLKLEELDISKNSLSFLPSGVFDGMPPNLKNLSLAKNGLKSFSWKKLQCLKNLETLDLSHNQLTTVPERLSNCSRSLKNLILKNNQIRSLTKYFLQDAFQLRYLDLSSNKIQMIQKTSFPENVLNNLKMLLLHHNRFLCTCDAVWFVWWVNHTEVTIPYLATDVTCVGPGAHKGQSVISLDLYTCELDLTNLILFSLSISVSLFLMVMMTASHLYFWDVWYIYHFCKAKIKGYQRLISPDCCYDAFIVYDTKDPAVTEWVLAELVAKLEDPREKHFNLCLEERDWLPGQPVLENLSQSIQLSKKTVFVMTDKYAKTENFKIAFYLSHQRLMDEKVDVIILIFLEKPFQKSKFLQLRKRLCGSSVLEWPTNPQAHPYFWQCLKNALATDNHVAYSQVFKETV
Description: TLR7 inhibition reporter assay (HEK-Blue cells, SEAP reporter). Particulars: HEK-Blue cells overexpressing human TLR7; stimulated with gardiquimod 7.5 μM; SEAP read after 22 hour; dose range 0.05 nM-50 μM. The gist of the method: as §1

The target in experiment [3] is T3, human TLR8 (Homo sapiens, UniProt Q9NR97).
T3 construct: host or cells: HEK-Blue cells
T3 sequence (Q9NR97 27-1041): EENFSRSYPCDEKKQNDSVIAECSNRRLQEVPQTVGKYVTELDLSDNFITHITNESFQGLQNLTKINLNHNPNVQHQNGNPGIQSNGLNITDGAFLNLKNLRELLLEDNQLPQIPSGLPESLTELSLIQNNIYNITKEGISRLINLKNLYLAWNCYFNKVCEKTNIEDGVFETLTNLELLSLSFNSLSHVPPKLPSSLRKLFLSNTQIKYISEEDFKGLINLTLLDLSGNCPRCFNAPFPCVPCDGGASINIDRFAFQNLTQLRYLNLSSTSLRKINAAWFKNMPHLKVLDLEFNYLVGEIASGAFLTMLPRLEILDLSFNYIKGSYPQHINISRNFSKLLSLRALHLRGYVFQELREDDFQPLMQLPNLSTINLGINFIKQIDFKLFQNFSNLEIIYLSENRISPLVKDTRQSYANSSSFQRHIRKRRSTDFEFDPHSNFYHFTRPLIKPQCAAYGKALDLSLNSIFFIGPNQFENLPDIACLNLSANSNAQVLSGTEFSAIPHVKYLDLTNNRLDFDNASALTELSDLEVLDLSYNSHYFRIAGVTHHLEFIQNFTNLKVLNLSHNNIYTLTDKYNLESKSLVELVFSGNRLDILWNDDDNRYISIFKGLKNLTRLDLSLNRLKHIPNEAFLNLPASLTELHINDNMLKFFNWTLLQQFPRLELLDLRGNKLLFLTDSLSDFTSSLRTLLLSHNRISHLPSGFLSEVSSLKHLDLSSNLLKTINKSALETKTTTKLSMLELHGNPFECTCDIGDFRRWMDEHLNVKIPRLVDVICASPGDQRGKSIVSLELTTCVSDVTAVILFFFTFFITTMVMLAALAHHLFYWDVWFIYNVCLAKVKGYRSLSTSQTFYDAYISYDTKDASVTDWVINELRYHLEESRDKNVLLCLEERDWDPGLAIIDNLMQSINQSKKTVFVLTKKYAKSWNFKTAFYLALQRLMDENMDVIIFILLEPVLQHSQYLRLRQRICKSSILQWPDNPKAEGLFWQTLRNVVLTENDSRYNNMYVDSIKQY
Description: TLR8 inhibition reporter assay (HEK-Blue cells, SEAP reporter). The conditions noted are these: HEK-Blue cells overexpressing human TLR8; stimulated with R848 15.9 μM; SEAP read after 22 hour; dose range 0.05 nM-50 μM. The gist of the method:
as §1

Structures are written as SMILES. Some results are limits rather than exact numbers.

Usually IC50 stands for the midpoint of a concentration-inhibition curve. Read a low IC50 as inhibition by little substance. For `Cn1c(=O)c(-c2ccc(S(C)(=O)=O)cc2)cc2cc(-c3ccc(C4CCN(C5COC5)CC4)cc3)ccc21` [Example 87, 3-(4-methanesulfonylphenyl)-1-methyl-6-{4-[1-(oxetan-3-yl)piperidin-4-yl]phenyl}-1,2-dihydroquinolin-2-one], the IC50 in experiment [1] is 416 nM; in experiment [2] it was no less than 50000 nM; in experiment [3], 30000 nM.

Regarding `O=c1[nH]c2ccc(-c3ccc(C4CCN(C5COC5)CC4)cc3)cc2cc1-c1ccc(OC(F)F)cc1` [Example 91, 3-[4-(difluoromethoxy)phenyl]-6-{4-[1-(oxetan-3-yl)piperidin-4-yl]phenyl}-1,2-dihydroquinolin-2-one], the concentration for half-maximal inhibition (IC50) is 512 nM in experiment [1], no less than 50000 nM in experiment [2] and no less than 50000 nM in experiment [3].

As to `CC(C)N1CCN(c2ccc(-c3ccc4[nH]c(=O)c(-c5ccccc5Cl)cc4c3)cc2)CC1` [Example 44, 3-(2-chlorophenyl)-6-{4-[4-(propan-2-yl)piperazin-1-yl]phenyl}-1,2-dihydroquinolin-2-one], the 50% inhibitory concentration (IC50) was 701 nM in experiment [1], 5610 nM in experiment [2] and no less than 50000 nM in experiment [3].

With `CC(C)N1CCN(c2ccc(-c3ccc4[nH]c(=O)c(-c5ccc(C(=O)N(C)C)cc5)cc4c3)cc2)CC1` [Example 60, N,N-dimethyl-4-(2-oxo-6-{4-[4-(propan-2-yl)piperazin-1-yl]phenyl}-1,2-dihydroquinolin-3-yl)benzamide], the IC50 in experiment [1] was 736 nM; in experiment [2], no less than 50000 nM; in experiment [3], no less than 50000 nM.

In the case of `CCC(=O)Nc1ccc(-c2cc3cc(-c4ccc(N5CCN(C(C)C)CC5)cc4)ccc3[nH]c2=O)cc1` [Example 52, N-[4-(2-oxo-6-{4-[4-(propan-2-yl)piperazin-1-yl]phenyl}-1,2-dihydroquinolin-3-yl)phenyl]propanamide], the half-maximal inhibitory concentration (IC50) in experiment [1] is 243 nM; in experiment [2], 15100 nM; in experiment [3] it was no less than 50000 nM.

Regarding `CC(C)N1CCN(c2ccc(-c3ccc4[nH]c(=O)c(-c5ccc(N6CC[C@@H](O)C6)cc5)cc4c3)cc2)CC1` [Example 61, 3-{4-[(3R)-3-hydroxypyrrolidin-1-yl]phenyl}-6-{4-[4-(propan-2-yl)piperazin-1-yl]phenyl}-1,2-dihydroquinolin-2-one], the IC50 is 1640 nM in experiment [1], no less than 50000 nM in experiment [2] and no less than 50000 nM in experiment [3].

As for `CC(=O)Nc1ccc(-c2cc3cc(-c4ccc(N5CCN(C(C)C)CC5)cc4)ccc3[nH]c2=O)cc1` [Example 5, N-[4-(2-oxo-6-{4-[4-(propan-2-yl)piperazin-1-yl]phenyl}-1,2-dihydroquinolin-3-yl)phenyl]acetamide], the IC50 is 59 nM in experiment [1], 3870 nM in experiment [2] and no less than 50000 nM in experiment [3].

Regarding `CC(C)N1CCN(c2ccc(-c3ccc4[nH]c(=O)c(-c5ccc(S(C)(=O)=O)cc5)cc4c3)cc2)CC1` [Example 4, 3-(4-methanesulfonylphenyl)-6-{4-[4-(propan-2-yl)piperazin-1-yl]phenyl}-1,2-dihydroquinolin-2-one], the IC50 was 206 nM in experiment [1], 4690 nM in experiment [2] and no less than 50000 nM in experiment [3].

With `CC(C)N1CCC(c2ccc(-c3ccc4[nH]c(=O)c(-c5ccc(NS(C)(=O)=O)cc5)cc4c3)cc2)CC1` [Example 83, N-[4-(2-oxo-6-{4-[1-(propan-2-yl)piperidin-4-yl]phenyl}-1,2-dihydroquinolin-3-yl)phenyl]methanesulfonamide], the figures for the IC50 in experiment [1], in experiment [2] and in experiment [3] were 354 nM, 369 nM and no less than 50000 nM, respectively.

As to `CC(C)N1CCN(c2ccc(-c3ccc4[nH]c(=O)c(-c5ccc(S(N)(=O)=O)cc5)cc4c3)cc2)CC1` [Example 11, 4-(2-oxo-6-{4-[4-(propan-2-yl)piperazin-1-yl]phenyl}-1,2-dihydroquinolin-3-yl) benzene-1-sulfonamide], the IC50 was 119 nM in experiment [1], no less than 50000 nM in experiment [2] and 2050 nM in experiment [3].

Take `CC(C)N1CCN(c2ccc(-c3ccc4[nH]c(=O)c(-c5ccccc5C#N)cc4c3)cc2)CC1` [Example 15, 2-(2-oxo-6-{4-[4-(propan-2-yl)piperazin-1-yl]phenyl}-1,2-dihydroquinolin-3-yl)benzonitrile]: the IC50 in experiment [1] turned out to be 259 nM; in experiment [2], 459 nM; in experiment [3] it was 1030 nM.

As for `COc1ccc(-c2cc3cc(-c4ccc(N5CCN(C(C)C)CC5)cc4)ccc3[nH]c2=O)cc1OC` [Example 43, 3-(3,4-dimethoxyphenyl)-6-{4-[4-(propan-2-yl)piperazin-1-yl]phenyl}-1,2-dihydroquinolin-2-one], the IC50 in experiment [1] was 553 nM; in experiment [2], 5020 nM; in experiment [3], no less than 50000 nM.
